Data published in ChEMBL document CHEMBL4813950, “Comparing the efficacy and selectivity of Ck2 inhibitors. A phosphoproteomics approach” (Eur J Med Chem, 2021).
Active and inactive are the calls of the source. The calls are words filed in the database; no cut-off is given here.

What was measured:
Assay type in all cases: cell-based
[1] = biological target: 1-phosphatidylinositol 4,5-bisphosphate phosphodiesterase delta-3 (Mus musculus) (UniProt Q8K2J0); assay: Inhibition of Plcd3 in mouse C2C12 cells assessed as reduction in phospho-sites occupancy at 4 uM after 5 hrs by SILAC based LC-MS/MS analysis relative to control
[2] = biological target: Lamina-associated polypeptide 2, isoforms beta/delta/epsilon/gamma (Mus musculus) (UniProt Q61029); assay: Inhibition of LAP2B epsilon in mouse C2C12 cells assessed as reduction in phospho-sites occupancy at 4 uM after 5 hrs by SILAC based LC-MS/MS analysis relative to control
[3] = biological target: EH domain-containing protein 2 (Mus musculus) (UniProt Q8BH64); assay: Inhibition of Ehd2 in mouse C2C12 cells assessed as reduction in phospho-sites occupancy at 4 uM after 5 hrs by SILAC based LC-MS/MS analysis relative to control
[4] = biological target: T1, Casein kinase 2 (Mus musculus) (UniProt Q60737+P67871+O54833+Q8CH19); assay: Inhibition of CK2 in mouse C2C12 cells assessed as reduction in Akt phosphorylation at S129 residues at 1 to 4 uM by Western blot analysis; conditions: dose 1-4 µM
[5] = biological target: Nucleolar RNA helicase 2 (Mus musculus) (UniProt Q9JIK5); assay: Inhibition of Ddx21 in mouse C2C12 cells assessed as reduction in phospho-sites occupancy at 4 uM after 5 hrs by SILAC based LC-MS/MS analysis relative to control
[6] = biological target: Protein transport protein Sec31A (Mus musculus) (UniProt Q3UPL0); assay: Inhibition of Sec31a in mouse C2C12 cells assessed as reduction in phospho-sites occupancy at 4 uM after 5 hrs by SILAC based LC-MS/MS analysis relative to control
[7] = biological target: Centrosomal protein of 170 kDa (Mus musculus) (UniProt Q6A065); assay: Inhibition of Cep170 in mouse C2C12 cells assessed as reduction in phospho-sites occupancy at 4 uM after 5 hrs by SILAC based LC-MS/MS analysis relative to control
[8] = biological target: Dihydropyrimidinase-related protein 3 (Mus musculus) (UniProt Q62188); assay: Inhibition of Dihydropyrimidinase-related protein 3 in mouse C2C12 cells assessed as reduction in phospho-sites occupancy at 4 uM after 5 hrs by SILAC based LC-MS/MS analysis relative to control
[9] = biological target: Rho GTPase-activating protein 35 (Mus musculus) (UniProt Q91YM2); assay: Inhibition of Arhgap35 in mouse C2C12 cells assessed as reduction in phospho-sites occupancy at 4 uM after 5 hrs by SILAC based LC-MS/MS analysis relative to control
[10] = biological target: T1, Casein kinase 2 (Mus musculus); assay: Inhibition of CK2 in mouse C2C12 cells assessed as reduction in CK2 substrates phosphorylation at 1 to 4 uM by Western blot analysis; conditions: dose 1-4 µM
[11] = biological target: WASH complex subunit 2 (Mus musculus) (UniProt Q6PGL7); assay: Inhibition of Washc2 in mouse C2C12 cells assessed as reduction in phospho-sites occupancy at 4 uM after 5 hrs by SILAC based LC-MS/MS analysis relative to control
[12] = biological target: Cyclin-dependent kinase 4 (Mus musculus) (UniProt P30285); assay: Inhibition of Cdk4 in mouse C2C12 cells assessed as reduction in phospho-sites occupancy at 4 uM after 5 hrs by SILAC based LC-MS/MS analysis relative to control
[13] = biological target: T1, Casein kinase 2 (Mus musculus); assay: Inhibition of CK2 in mouse C2C12 cells assessed as reduction in CDC37 phosphorylation at S13 residues at 1 to 4 uM by Western blot analysis; conditions: dose 1-4 µM
[14] = biological target: E3 ubiquitin-protein ligase NEDD4 (Mus musculus) (UniProt P46935); assay: Inhibition of Nedd4 in mouse C2C12 cells assessed as reduction in phospho-sites occupancy at 4 uM after 5 hrs by SILAC based LC-MS/MS analysis relative to control
[15] = biological target: DNA replication licensing factor MCM2 (Mus musculus) (UniProt P97310); assay: Inhibition of Mcm2 in mouse C2C12 cells assessed as reduction in phospho-sites occupancy at 4 uM after 5 hrs by SILAC based LC-MS/MS analysis relative to control
[16] = biological target: Kinectin (Mus musculus) (UniProt Q61595); assay: Inhibition of Ktn1 in mouse C2C12 cells assessed as reduction in phospho-sites occupancy at 4 uM after 5 hrs by SILAC based LC-MS/MS analysis relative to control
[17] = biological target: La-related protein 1 (Mus musculus) (UniProt Q6ZQ58); assay: Inhibition of Larp1 in mouse C2C12 cells assessed as reduction in phospho-sites occupancy at 4 uM after 5 hrs by SILAC based LC-MS/MS analysis relative to control
[18] = biological target: Desmoyokin (Mus musculus) (UniProt Q61484); assay: Inhibition of AHNAK in mouse C2C12 cells assessed as reduction in phospho-sites occupancy at 4 uM after 5 hrs by SILAC based LC-MS/MS analysis relative to control
[19] = biological target: Transcriptional regulator ATRX (Mus musculus) (UniProt Q61687); assay: Inhibition of ATRX in mouse C2C12 cells assessed as reduction in phospho-sites occupancy at 4 uM after 5 hrs by SILAC based LC-MS/MS analysis relative to control
[20] = biological target: tRNA (guanine(26)-N(2))-dimethyltransferase (Mus musculus) (UniProt Q3TX08); assay: Inhibition of Trmt1 in mouse C2C12 cells assessed as reduction in phospho-sites occupancy at 4 uM after 5 hrs by SILAC based LC-MS/MS analysis relative to control
[21] = biological target: Autophagy-related protein 9A (Mus musculus) (UniProt Q68FE2); assay: Inhibition of Atg9a in mouse C2C12 cells assessed as reduction in phospho-sites occupancy at 4 uM after 5 hrs by SILAC based LC-MS/MS analysis relative to control
[22] = biological target: Fermitin family homolog 2 (Mus musculus) (UniProt Q8CIB5); assay: Inhibition of Fermt2 in mouse C2C12 cells assessed as reduction in phospho-sites occupancy at 4 uM after 5 hrs by SILAC based LC-MS/MS analysis relative to control
[23] = biological target: Serine/arginine repetitive matrix protein 1 (Mus musculus) (UniProt Q52KI8); assay: Inhibition of Srrm1 in mouse C2C12 cells assessed as reduction in phospho-sites occupancy at 4 uM after 5 hrs by SILAC based LC-MS/MS analysis relative to control
[24] = biological target: Pleckstrin homology-like domain family B member 1 (Mus musculus) (UniProt Q6PDH0); assay: Inhibition of Phldb1 in mouse C2C12 cells assessed as reduction in phospho-sites occupancy at 4 uM after 5 hrs by SILAC based LC-MS/MS analysis relative to control

fold change (FC) [1]: 2.53
fold change (FC) [2]: 1.82
fold change (FC) [3]: 1.65
inhibition [4]: Active
fold change (FC) [5]: 1.85
fold change (FC) [6]: 2.28
fold change (FC) [7]: 1.56
fold change (FC) [8]: 2.57
fold change (FC) [9]: 1.95
inhibition [10]: Active
fold change (FC) [11]: 3.41
fold change (FC) [12]: 2.6
inhibition [13]: Active
fold change (FC) [14]: 3.66
fold change (FC) [15]: 1.83
fold change (FC) [16]: 1.54
fold change (FC) [17]: 1.84
fold change (FC) [18]: 1.54
fold change (FC) [19]: 2.22
fold change (FC) [20]: 1.54
fold change (FC) [21]: 1.5
fold change (FC) [22]: 2.53
fold change (FC) [23]: 1.7
fold change (FC) [24]: 2.12
Structure (SMILES): O=C(O)c1ccc2c(c1)nc(Nc1cccc(Cl)c1)c1ccncc12
